Article PMC7168151, “Brevinin-2GHk from Sylvirana guentheri and the Design of Truncated Analogs Exhibiting the Enhancement of Antimicrobial Activity” (Antibiotics, 2020)
In brackets after ≈: the same amount, converted by molar mass. Where a SMILES comes first, the peptide text is derived from it. Where no end group is shown, it is not given here.

Legend:
[1] = test system: Staphylococcus aureus (NCTC 10788); assay type: cell-based
Experimental: (§1) The antimicrobial activity of synthetic peptides was determined using the minimal inhibitory concentration (MIC) and the minimal bactericidal concentration […] performed by the microdilution method in a 96 well plate. Gram-positive bacteria, Staphylococcus aureus (NCTC 10788), methicillin-resistant Staphylococcus aureus (MRSA, NCTC 12493), Enterococcus faecalis (NCTC12697), and Gram-negative bacteria, Escherichia coli (NCTC 10418), Pseudomonas aeruginosa (ATCC 27853), Klebsiella pneumoniae (ATCC 43816) and the pathogenic yeast Candida albicans (NCYC 1467). All bacteria were cultured in MHB and C. albicans was cultured in YPD broth. Norfloxacin and amphotericin B were used as positive controls for bacteria and yeast, respectively.

[2] = test system: Enterococcus faecalis (NCTC12697); assay type: cell-based
Experimental: as §1

[3] = test system: Candida albicans (NCYC 1467); assay type: cell-based
Experimental: as §1

[4] = test system: Pseudomonas aeruginosa (ATCC 27853); assay type: cell-based
Experimental: as §1

HMEC-1 cells = settings: for drop in cell viability of HMEC-1 cells: 100 µM
Experimental: The cytotoxicity of BR2GK and its derivatives were determined by hemolysis assay and MTT assay on the dermal microvascular endothelium cell line, HMEC-1 (ATCC CRL-3243).
MTT assays were conducted as outlined previously [35]. Ten thousand cells were seeded in each well of a 96-well plate. Cells were treated with different peptide concentrations for 24 h. Triton (0.1%) X-100 was used as a positive control.

[5] = test system: Escherichia coli (NCTC 10418); assay type: cell-based
Experimental: as §1

[6] = test system: Klebsiella pneumoniae (ATCC 43816); assay type: cell-based
Experimental: as §1

[7] = test system: methicillin-resistant Staphylococcus aureus (MRSA, NCTC 12493); assay type: cell-based
Experimental: as §1

Experimental for horse erythrocytes: Horse erythrocytes (TCS Biosciences Ltd., Buckingham, UK) were subjected to the hemolysis of all synthetic peptides as described previously [35]. Briefly, the erythrocytes were washed and resuspended by PBS to achieve a 4% suspension. The test peptide solutions were transferred into the aforementioned suspension and kept at a constant 37 °C for 2 h, while Triton X-100 (Sigma-Aldrich, St. Louis, MO, USA) was employed to replace the peptide solution for establishing the positive control. The supernatants after incubation were measured at 470 nm.

Molecule | MBC S. aureus [1] [µM] | MIC S. aureus [1] [µM] | MBC E. faecalis [2] [µM] | MIC E. faecalis [2] [µM] | MIC C. albicans [3] [µM] | MIC P. aeruginosa [4] [µM] | hemolysis of horse erythrocytes at 256 µM (horse erythrocytes) | cytotoxicity on HMEC-1 cells at 100 µM (HMEC-1 cells) | MBC E. coli [5] [µM] | MIC E. coli [5] [µM] | MBC K. pneumoniae [6] [µM] | MIC K. pneumoniae [6] [µM] | MBC C. albicans [3] [µM] | MBC MRSA [7] [µM] | MIC MRSA [7] [µM] | MBC P. aeruginosa [4] [µM] | drop in cell viability of HMEC-1 cells (HMEC-1 cells)
CC(C)C[C@H](NC(=O)[C@H](CCC(N)=O)NC(=O)[C@H](CCC(N)=O)NC(=O)[C@H](C)NC(=O)CNC(=O)[C@H](C)NC(=O)[C@H](CCCCN)NC(=O)CNC(=O)[C@@H](NC(=O)[C@H](CCC(N)=O)NC(=O)[C@H](CCCCN)NC(=O)[C@H](CC(C)C)NC(=O)[C@H](CC(C)C)NC(=O)[C@H](Cc1ccc(O)cc1)NC(=O)[C@H](CCCCN)NC(=O)[C@H](C)NC(=O)CNC(=O)[C@H](C)NC(=O)[C@H](CCCCN)NC(=O)[C@H](Cc1ccccc1)NC(=O)[C@H](CC(C)C)NC(=O)[C@H](CO)NC(=O)[C@H](CO)NC(=O)[C@H](Cc1ccccc1)NC(=O)CN)C(C)C)C(=O)N[C@@H](C)C(=O)N[C@H]1CSSC[C@@H](C(=O)O)NC(=O)[C@H](CC(N)=O)NC(=O)[C@H](CC(N)=O)NC(=O)[C@H](C)NC(=O)[C@H](C)NC(=O)[C@H](CCCCN)NC1=O [BR2GK] (HELM PEPTIDE1{G.F.S.S.L.F.K.A.G.A.K.Y.L.L.K.Q.V.G.K.A.G.A.Q.Q.L.A.C.K.A.A.N.N.C}$PEPTIDE1,PEPTIDE1,27:R3-33:R3$$$V2.0) | 256 (≈ 867 µg/mL) | 64 (≈ 217 µg/mL) | 256 (≈ 867 µg/mL) | 64 (≈ 217 µg/mL) | 256 (≈ 867 µg/mL) | > 512 | more than 40% | significant cytotoxicity |  |  |  |  |  |  |  |  | 
GFSSLFKAGAKYLAKQVGKAGAQQL-NH2 [[A^14]BR2GK(1-25)a] | 16 | 8 | 16 | 8 | 16 | 32 |  |  | 32 | 8 | 256 | 128 | 32 | 64 | 16 | 128 | 
GFSSLFKAGAKYLKKQVGKAGAQQL-NH2 [[K^14]BR2GK(1-25)a] | 32 | 16 | 64 | 16 | 64 | 16 |  |  | 32 | 8 | 256 | 128 | 128 | 128 | 64 | 64 | around 15%
GFSSLFKAGAKYLLKQVGKAGAQQL-NH2 [BR2GK(1-25)a] | 8 | 4 | 16 | 4 | 4 | 8 | around 20% |  | 8 | 4 | 32 | 16 | 16 | 16 | 4 | 32 | around 15%
GFSSLFKAGAKYLPKQVGKAGAQQL-NH2 [[P^14]BR2GK(1-25)a] | > 512 | 512 |  |  |  | > 512 |  |  | > 512 | > 512 | > 512 | > 512 |  | > 512 | > 512 | > 512 | 
GFSSLFKAGAKYLRKQVGKAGAQQL-NH2 [[R^14]BR2GK(1-25)a] | 32 | 16 | 32 | 16 | 64 | 16 |  |  | 16 | 8 | 256 | 128 | 128 | 128 | 64 | 32 | around 15%
